≈ marks a conversion by molar mass, not a printed value. Like-named read-outs stand apart in the source and are kept apart here.
Legend:
[1] = tested on: Escherichia coli NIHJ-JC-2 (MS-1); assay: MIC by agar dilution method; assay type: cell-based; conditions: NIHJJC2, E. coli NIHJ-JC-2 (MS-1)
From the text: (§1) Also shown in the same table are the MIC's obtained for josamycin (JM) and erythromycin (EM) as controls.

[2] = tested on: Micrococcus luteus ATCC 9341 (MS-1); assay: MIC by agar dilution method; assay type: cell-based; conditions: ATCC9341
From the text: as §1

[3] = tested on: Salmonella typhimurium IID971 (MS-1); assay: MIC by agar dilution method; assay type: cell-based; conditions: Salmonella enterica
From the text: as §1

[4] = tested on: Escherichia coli K12 C600 (MS-1); assay: MIC by agar dilution method; assay type: cell-based; conditions: E. coli K12 C600 (MS-1)
From the text: as §1

[5] = tested on: Pseudomonas aeruginosa PAO 1 (MS-1); assay: MIC by agar dilution method; assay type: cell-based
From the text: as §1

[6] = tested on: Pseudomonas aeruginosa NCTC 10490 (MS-1); assay: MIC by agar dilution method; assay type: cell-based; conditions: NCTC10490
From the text: as §1

[7] = tested on: Enterobacter aerogenes ATCC 13048 (MS-1); assay: MIC by agar dilution method; assay type: cell-based; conditions: Klebsiella aerogenes, ATCC13048
From the text: as §1

[8] = tested on: Staphylococcus aureus Terajima (MS-1); assay: MIC by agar dilution method; assay type: cell-based
From the text: as §1

[9] = tested on: Staphylococcus aureus FDA 209PJC-1 (MS-1); assay: MIC by agar dilution method; assay type: cell-based
From the text: as §1

[10] = tested on: Proteus rettgeri IFO 3850 (MS-1); assay: MIC by agar dilution method; assay type: cell-based; conditions: Providencia rettgeri, IFO3850
From the text: as §1

[11] = tested on: Staphylococcus aureus MS 353 (MS-1); assay: MIC by agar dilution method; assay type: cell-based
From the text: as §1

[12] = tested on: Serratia marcescens IAM 1184 (MS-1); assay: MIC by agar dilution method; assay type: cell-based; conditions: IAM1184
From the text: as §1

[13] = tested on: Enterobacter cloacae 963 (MS-1); assay: MIC by agar dilution method; assay type: cell-based
From the text: as §1

[14] = tested on: Salmonella paratyphi 1015 (MS-1); assay: MIC by agar dilution method; assay type: cell-based; conditions: Salmonella enterica
From the text: as §1

[15] = tested on: Streptococcus pyogenes Cook (MS-1); assay: MIC by agar dilution method; assay type: cell-based
From the text: as §1

[16] = tested on: Proteus morganii IFO 3848 (MS-1); assay: MIC by agar dilution method; assay type: cell-based; conditions: Morganella morganii, IFO3848
From the text: as §1

[17] = tested on: Mycoplasma pneumoniae; assay: MIC by agar dilution method; assay type: cell-based
From the text: as §1

[18] = tested on: Bacillus cereus IAM 1729; assay: MIC by agar dilution method; assay type: cell-based; conditions: IAM1729
From the text: as §1

[19] = tested on: Bacillus subtilis ATCC 6633 (MS-1); assay: MIC by agar dilution method; assay type: cell-based; conditions: ATCC6633
From the text: as §1

[20] = tested on: Salmonella enteritidis G 14 (MS-1); assay: MIC by agar dilution method; assay type: cell-based; conditions: Salmonella enterica
From the text: as §1

[21] = tested on: Klebsiella pneumoniae PCI-602 (MS-1); assay: MIC by agar dilution method; assay type: cell-based
From the text: as §1

[22] = tested on: Salmonella typhi 901 (MS-1); assay: MIC by agar dilution method; assay type: cell-based; conditions: Salmonella enterica
From the text: as §1

[23] = tested on: Proteus vulgaris OX-19 (MS-1); assay: MIC by agar dilution method; assay type: cell-based
From the text: as §1

[24] = tested on: Salmonella schottmuelleri 8006 (MS-1); assay: MIC by agar dilution method; assay type: cell-based
From the text: as §1

[25] = tested on: Pseudomonas aeruginosa IFO 3445 (MS-1); assay: MIC by agar dilution method; assay type: cell-based; conditions: IFO3445
From the text: as §1

[26] = tested on: Staphylococcus aureus MS 12917 Mac^r; assay: MIC by agar dilution method; assay type: cell-based
From the text: as §1
(§2) Note: "Mac^r " stands for a constitutive macrolide resistant

[27] = tested on: Staphylococcus aureus MS 15009 (pI258) Mac^r; assay: MIC by agar dilution method; assay type: cell-based
From the text: as §1, §2

[28] = Solubility; assay type: physicochemical
[29] = agar dilution, Micrococcus luteus ATCC 9341 (MS-1), read-out: MIC
[30] = agar dilution, Salmonella typhimurium IID971 (MS-1), read-out: MIC
[31] = agar dilution, Pseudomonas aeruginosa PAO 1 (MS-1), read-out: MIC
[32] = agar dilution, Pseudomonas aeruginosa NCTC 10490 (MS-1), read-out: MIC
[33] = agar dilution, Enterobacter aerogenes ATCC 13048 (MS-1), read-out: MIC
[34] = agar dilution, S. aureus Terajima (MS-1), read-out: MIC
[35] = agar dilution, S. aureus FDA 209PJC-1 (MS-1), read-out: MIC
[36] = agar dilution, Proteus rettgeri IFO 3850 (MS-1), read-out: MIC
[37] = agar dilution, S. aureus MS 353 (MS-1), read-out: MIC
[38] = agar dilution, Serratia marcescens IAM 1184 (MS-1), read-out: MIC
[39] = agar dilution, Enterobacter cloacae 963 (MS-1), read-out: MIC
[40] = agar dilution, Streptococcus pyogenes Cook (MS-1), read-out: MIC
[41] = agar dilution, Proteus morganii IFO 3848 (MS-1), read-out: MIC
[42] = agar dilution, Mycoplasma pneumoniae, read-out: MIC
[43] = agar dilution, Bacillus cereus IAM 1729, read-out: MIC
[44] = agar dilution, Bacillus subtilis ATCC 6633 (MS-1), read-out: MIC
[45] = agar dilution, Salmonella enteritidis G 14 (MS-1), read-out: MIC
[46] = agar dilution, Klebsiella pneumoniae PCI-602 (MS-1), read-out: MIC
[47] = agar dilution, Proteus vulgaris OX-19 (MS-1), read-out: MIC
[48] = agar dilution, Pseudomonas aeruginosa IFO 3445 (MS-1), read-out: MIC

Compound	MIC [1]	MIC [4]	MIC [14]	MIC [22]	MIC [24]	MIC [26]	MIC [27]	MIC [2, 29]	MIC [3, 30]	MIC [5, 31]	MIC [6, 32]	MIC [7, 33]	MIC [8, 34]	MIC [9, 35]	MIC [10, 36]	MIC [11, 37]	MIC [12, 38]	MIC [13, 39]	MIC [15, 40]	MIC [16, 41]	also measured
CC[C@H]1OC(=O)[C@H](C)[C@@H](O[C@H]2C[C@@](C)(OC)[C@@H](O)[C@H](C)O2)[C@H](C)[C@@H](O[C@@H]2O[C@H](C)C[C@H](N(C)C)[C@H]2O)[C@](C)(O)C[C@@H](C)C(=O)[C@H](C)[C@@H](O)[C@]1(C)O [EM, erythromycin, reference compound]	100 µg/mL (≈ 136 µM)	50 µg/mL (≈ 68.1 µM)	25 µg/mL (≈ 34.1 µM)	50 µg/mL (≈ 68.1 µM)	50 µg/mL (≈ 68.1 µM)	> 100 µg/mL	> 100 µg/mL														MIC ([2]; Micrococcus luteus): < 0.1 µg/mL; MIC [3]: 100 µg/mL (≈ 136 µM); MIC ([5]; Pseudomonas aeruginosa): > 100 µg/mL; MIC ([6]; Pseudomonas aeruginosa): > 100 µg/mL; MIC [7]: 100 µg/mL (≈ 136 µM); MIC [8]: 0.2 µg/mL (≈ 0.273 µM); MIC [9]: 0.2 µg/mL (≈ 0.273 µM); MIC [10]: > 100 µg/mL; MIC [11]: 0.2 µg/mL (≈ 0.273 µM); MIC ([12]; Serratia marcescens): 100 µg/mL (≈ 136 µM); MIC ([13]; Enterobacter cloacae): > 100 µg/mL; MIC ([15]; Streptococcus pyogenes): 0.2 µg/mL (≈ 0.273 µM); MIC [16]: 25 µg/mL (≈ 34.1 µM); MIC ([17]; Mycoplasma): 0.1 µg/mL (≈ 0.136 µM); MIC ([18]; Bacillus cereus): 0.2 µg/mL (≈ 0.273 µM); MIC ([19]; Bacillus subtilis): < 0.1 µg/mL; MIC ([20]; ENTERITIDIS): 100 µg/mL (≈ 136 µM); MIC ([21]; Klebsiella pneumoniae): 6.25 µg/mL (≈ 8.52 µM); MIC ([23]; Proteus vulgaris): > 100 µg/mL; MIC ([25]; Pseudomonas aeruginosa): > 100 µg/mL
CO[C@@H]1[C@@H](O[C@@H]2O[C@H](C)[C@@H](O[C@H]3C[C@@](C)(O)[C@@H](OC(=O)CC(C)C)[C@H](C)O3)[C@H](N(C)C)[C@H]2O)[C@@H](CC=O)C[C@@H](C)[C@@H](O)/C=C/C=C/C[C@@H](C)OC(=O)C[C@H]1OC(C)=O [JM, josamycin, reference compound]	> 100 µg/mL	> 100 µg/mL	100 µg/mL (≈ 121 µM)	> 100 µg/mL	> 100 µg/mL	> 100 µg/mL	> 100 µg/mL	< 0.1 µg/mL	> 100 µg/mL	> 100 µg/mL	> 100 µg/mL	> 100 µg/mL	0.78 µg/mL (≈ 0.942 µM)	0.2 µg/mL (≈ 0.242 µM)	> 100 µg/mL	0.78 µg/mL (≈ 0.942 µM)	> 100 µg/mL	> 100 µg/mL	0.2 µg/mL (≈ 0.242 µM)	> 100 µg/mL	MIC [17, 42]: 0.2 µg/mL (≈ 0.242 µM); MIC [18, 43]: 0.39 µg/mL (≈ 0.471 µM); MIC [19, 44]: 0.39 µg/mL (≈ 0.471 µM); MIC [20, 45]: > 100 µg/mL; MIC [21, 46]: 12.5 µg/mL (≈ 15.1 µM); MIC [23, 47]: > 100 µg/mL; MIC [25, 48]: > 100 µg/mL
CCC1OC(=O)CC(O)C(C)C(OC2OC(C)C(OC3CC(C)(O)C(O)C(C)O3)C(N(C)C)C2O)C(CC=O)CC(C)C(=O)C=CC2(C)OC2C1C (stereo not drawn) [M 119-a]	> 100 µg/mL	100 µg/mL (≈ 135 µM)	50 µg/mL (≈ 67.4 µM)	100 µg/mL (≈ 135 µM)	100 µg/mL (≈ 135 µM)	> 100 µg/mL	> 100 µg/mL	< 0.1 µg/mL	> 100 µg/mL	> 100 µg/mL	> 100 µg/mL	> 100 µg/mL	0.78 µg/mL (≈ 1.05 µM)	0.2 µg/mL (≈ 0.27 µM)	> 100 µg/mL	0.78 µg/mL (≈ 1.05 µM)	> 100 µg/mL	> 100 µg/mL	0.2 µg/mL (≈ 0.27 µM)	50 µg/mL (≈ 67.4 µM)	Solubility ([28]; in hexane, ether and water): insoluble; Solubility ([28]; in methanol and chloroform): Soluble; MIC [17, 42]: 0.1 µg/mL (≈ 0.135 µM); MIC [18, 43]: 0.39 µg/mL (≈ 0.526 µM); MIC [19, 44]: 0.2 µg/mL (≈ 0.27 µM); MIC [20, 45]: > 100 µg/mL; MIC [21, 46]: 12.5 µg/mL (≈ 16.8 µM); MIC [23, 47]: > 100 µg/mL; MIC [25, 48]: > 100 µg/mL
CCC1OC(=O)CC(O)C(C)C(OC2OC(C)C(OC3CC(C)(O)C(O)C(C)O3)C(N(C)C)C2O)C(CC=O)CC(C)C(=O)C=CC2(C)OC2C1(C)O (stereo not drawn) [M 119-d]	> 100 µg/mL	100 µg/mL (≈ 132 µM)	25 µg/mL (≈ 33 µM)	100 µg/mL (≈ 132 µM)	25 µg/mL (≈ 33 µM)	> 100 µg/mL	> 100 µg/mL	0.2 µg/mL (≈ 0.264 µM)	> 100 µg/mL	> 100 µg/mL	> 100 µg/mL	100 µg/mL (≈ 132 µM)	3.13 µg/mL (≈ 4.13 µM)	0.78 µg/mL (≈ 1.03 µM)	> 100 µg/mL	3.13 µg/mL (≈ 4.13 µM)	> 100 µg/mL	> 100 µg/mL	0.78 µg/mL (≈ 1.03 µM)	50 µg/mL (≈ 66 µM)	Solubility ([28]; in hexane, ether and water): insoluble; Solubility ([28]; in methanol and chloroform): Soluble; MIC [18, 43]: 1.56 µg/mL (≈ 2.06 µM); MIC [19, 44]: 0.78 µg/mL (≈ 1.03 µM); MIC [20, 45]: > 100 µg/mL; MIC [21, 46]: 12.5 µg/mL (≈ 16.5 µM); MIC [23, 47]: > 100 µg/mL; MIC [25, 48]: > 100 µg/mL

— US4734492A, “Macrolide antibiotic M 119” (Kirin Beer Kabushiki Kaisha, priority 1985, dated 1988)
